From ChEMBL document CHEMBL2073865 (Drug Metab Dispos, 2004)
Counter-ions that a name gives are not always drawn. Values belong to the molecule of their own block, whether it stands above or below them.

Experiments:
Type in all cases: functional, cell-based
[1] = biological target: T1, ATP-dependent translocase ABCB1 (Homo sapiens, UniProt P08183); test: TP_TRANSPORTER: transepithelial transport of erythromycin in the presence of Indoxyl sulfate at 1mM in MDR1-expressing MDCK cells; settings: dog, 1000 µM
[2] = biological target: T1, ATP-dependent translocase ABCB1; test: TP_TRANSPORTER: transepithelial transport of erythromycin in the presence of Hippurate at 2mM in MDR1-expressing MDCK cells; settings: dog, 2000 µM
[3] = biological target: T1, ATP-dependent translocase ABCB1; test: TP_TRANSPORTER: transepithelial transport of erythromycin in the presence of 3-Carboxy-4-methyl-5-propyl-2-furanpropanoic acid at 500uM and 1mM in MDR1-expressing MDCK cells; settings: dog

T1 sequence (P08183 whole entry): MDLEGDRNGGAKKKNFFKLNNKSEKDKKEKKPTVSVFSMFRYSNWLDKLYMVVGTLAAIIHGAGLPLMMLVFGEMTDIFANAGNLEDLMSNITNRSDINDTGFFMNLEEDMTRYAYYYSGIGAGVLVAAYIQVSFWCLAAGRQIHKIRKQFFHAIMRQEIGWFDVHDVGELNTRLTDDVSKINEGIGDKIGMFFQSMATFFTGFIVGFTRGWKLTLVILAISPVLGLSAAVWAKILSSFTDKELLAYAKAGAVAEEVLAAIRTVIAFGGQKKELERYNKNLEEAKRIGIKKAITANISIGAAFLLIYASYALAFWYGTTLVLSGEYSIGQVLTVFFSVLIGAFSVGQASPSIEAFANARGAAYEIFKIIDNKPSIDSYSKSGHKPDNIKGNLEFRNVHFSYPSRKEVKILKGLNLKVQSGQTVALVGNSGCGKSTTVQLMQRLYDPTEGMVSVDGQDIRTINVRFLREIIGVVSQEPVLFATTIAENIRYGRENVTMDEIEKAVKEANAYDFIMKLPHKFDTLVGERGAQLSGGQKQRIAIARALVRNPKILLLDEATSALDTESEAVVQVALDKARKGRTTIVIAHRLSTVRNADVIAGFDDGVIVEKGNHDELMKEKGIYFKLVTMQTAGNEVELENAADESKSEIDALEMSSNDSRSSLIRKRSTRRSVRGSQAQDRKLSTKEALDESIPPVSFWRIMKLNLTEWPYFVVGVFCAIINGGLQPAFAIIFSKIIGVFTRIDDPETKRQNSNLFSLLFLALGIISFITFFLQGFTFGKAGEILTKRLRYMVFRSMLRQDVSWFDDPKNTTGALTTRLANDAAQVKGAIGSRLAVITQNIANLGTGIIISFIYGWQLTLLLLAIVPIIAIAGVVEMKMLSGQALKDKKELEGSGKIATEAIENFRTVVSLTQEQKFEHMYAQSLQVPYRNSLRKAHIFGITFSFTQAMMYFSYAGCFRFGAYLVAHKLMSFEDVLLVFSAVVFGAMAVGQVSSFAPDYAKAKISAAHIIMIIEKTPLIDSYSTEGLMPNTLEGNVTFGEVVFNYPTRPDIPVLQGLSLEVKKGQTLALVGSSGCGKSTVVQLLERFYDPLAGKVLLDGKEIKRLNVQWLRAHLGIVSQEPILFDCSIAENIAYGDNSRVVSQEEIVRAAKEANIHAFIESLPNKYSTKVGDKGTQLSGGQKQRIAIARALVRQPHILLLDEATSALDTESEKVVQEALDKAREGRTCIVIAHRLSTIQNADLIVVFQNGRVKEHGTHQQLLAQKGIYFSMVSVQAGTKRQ

Activity [1]: is not an inhibitor [-]
Compound: O=S(=O)(O)Oc1c[nH]c2ccccc12 [INDOXYL SULFATE]

Activity [2]: is not an inhibitor [-]
Compound: O=C(O)CNC(=O)c1ccccc1 [HIPPURIC ACID]

Activity [3]: is not an inhibitor [-]
Compound: CCCc1oc(CCC(=O)O)c(C(=O)O)c1C
